Measurements published in US10087187B2, “Imidazopyridazine derivatives as PI3KB inhibitors” (Janssen Pharmaceutica NV, priority 2014, dated 2018).
pIC50, pKd: −log10 of the molar value.

What was measured:
MTOR_h = MTOR_h (Homo sapiens (Human), UniProt P42345); experiment: KINOMEscan enzyme binding assay, MTOR; conditions: DiscoveRx
Method: (§1) Enzyme Binding Assays (KINOMEscan®) Kinase enzyme binding affinities of compounds disclosed herein were determined using the KINOMEscan technology performed by DiscoveRx Corporation, San Diego, Calif., USA (www.kinomescan.com).

PIK3Cδ_h = PIK3Cδ_h (Homo sapiens (Human), UniProt O00329); experiment: KINOMEscan enzyme binding assay, PIK3Cδ; conditions: DiscoveRx
Method: as §1, with “(www.kinomescan.com). Table A reports the obtained Kd values (nM), with the Kd being the inhibitor binding constant: […]” for “(www.kinomescan.com).”

PIK3Cα_h = PIK3Cα_h (Homo sapiens (Human), UniProt P42336); experiment: KINOMEscan enzyme binding assay, PIK3Cα; conditions: DiscoveRx
Method: as §1

[1] = system: Akt phosphorylated at Thr308 in PC-3 cells; experiment: Cellular assay: phosphorylation of Akt (Thr308) in PC-3 cells, MSD ELISA; assay type: cell-based; conditions: Homo sapiens, PC-3, 1 h, 60 min incubation with compound, read-out: IC50 pAkt_Thr308
Procedure, shortened: (§2)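 PC-3 cells cultured 24 h in DMEM/10% FCS were exposed to compound for 60 min at 37° C, with 0.3% DMSO. Lysates were analysed by MSD electrochemiluminescent sandwich ELISA using phospho-Ser473 or phospho-Thr308 capture and anti-total Akt detection antibodies. IC50 was derived by nonlinear sigmoidal fitting of % inhibition over five concentrations.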

PIK3Cγ_h = PIK3Cγ_h (Homo sapiens (Human), UniProt P48736); experiment: KINOMEscan enzyme binding assay, PIK3Cγ; conditions: DiscoveRx
Method: as §1

[2] = system: Akt phosphorylated at Ser473 in PC-3 cells; experiment: Cellular assay: phosphorylation of Akt (Ser473) in PC-3 cells, MSD ELISA; assay type: cell-based; conditions: Homo sapiens, PC-3, 1 h, 60 min incubation with compound, read-out: IC50 pAkt_S473
Procedure, shortened: as §2

PIK3Cβ_h = PIK3Cβ_h (Homo sapiens (Human), UniProt P42338); experiment: KINOMEscan enzyme binding assay, PIK3Cβ; conditions: DiscoveRx
Method: as §1, with “(www.kinomescan.com). Table A reports the obtained Kd values (nM), with the Kd being the inhibitor binding constant: […]” for “(www.kinomescan.com).”

Sequence of PIK3Cγ_h (P48736 whole entry): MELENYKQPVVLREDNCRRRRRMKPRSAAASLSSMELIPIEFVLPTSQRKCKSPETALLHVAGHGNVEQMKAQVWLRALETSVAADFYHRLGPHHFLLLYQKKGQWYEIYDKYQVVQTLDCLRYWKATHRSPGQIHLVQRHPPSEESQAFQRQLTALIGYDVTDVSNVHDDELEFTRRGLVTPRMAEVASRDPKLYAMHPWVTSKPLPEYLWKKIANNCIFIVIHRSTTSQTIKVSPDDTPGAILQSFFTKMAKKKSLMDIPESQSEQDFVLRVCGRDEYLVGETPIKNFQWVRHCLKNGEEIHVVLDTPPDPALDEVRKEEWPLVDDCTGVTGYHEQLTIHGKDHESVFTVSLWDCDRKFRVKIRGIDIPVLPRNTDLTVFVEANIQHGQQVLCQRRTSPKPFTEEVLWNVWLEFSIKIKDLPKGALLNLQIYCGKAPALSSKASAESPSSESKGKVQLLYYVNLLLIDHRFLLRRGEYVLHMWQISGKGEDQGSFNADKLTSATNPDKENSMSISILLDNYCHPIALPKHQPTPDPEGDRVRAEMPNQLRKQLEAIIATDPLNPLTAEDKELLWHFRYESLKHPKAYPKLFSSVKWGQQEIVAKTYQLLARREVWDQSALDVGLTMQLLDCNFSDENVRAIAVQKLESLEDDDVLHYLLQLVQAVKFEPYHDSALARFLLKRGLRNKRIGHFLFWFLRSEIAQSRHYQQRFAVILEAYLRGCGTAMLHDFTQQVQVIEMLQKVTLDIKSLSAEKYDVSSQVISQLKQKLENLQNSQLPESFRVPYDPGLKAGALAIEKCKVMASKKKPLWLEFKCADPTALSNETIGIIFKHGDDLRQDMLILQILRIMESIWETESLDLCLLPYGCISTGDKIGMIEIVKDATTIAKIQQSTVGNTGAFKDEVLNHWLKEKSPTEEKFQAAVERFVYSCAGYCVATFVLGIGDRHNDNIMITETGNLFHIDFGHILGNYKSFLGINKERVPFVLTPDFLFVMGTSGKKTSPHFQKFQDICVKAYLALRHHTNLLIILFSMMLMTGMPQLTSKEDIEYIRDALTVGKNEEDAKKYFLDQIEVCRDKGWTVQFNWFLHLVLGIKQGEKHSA
Sequence of PIK3Cδ_h (O00329 whole entry): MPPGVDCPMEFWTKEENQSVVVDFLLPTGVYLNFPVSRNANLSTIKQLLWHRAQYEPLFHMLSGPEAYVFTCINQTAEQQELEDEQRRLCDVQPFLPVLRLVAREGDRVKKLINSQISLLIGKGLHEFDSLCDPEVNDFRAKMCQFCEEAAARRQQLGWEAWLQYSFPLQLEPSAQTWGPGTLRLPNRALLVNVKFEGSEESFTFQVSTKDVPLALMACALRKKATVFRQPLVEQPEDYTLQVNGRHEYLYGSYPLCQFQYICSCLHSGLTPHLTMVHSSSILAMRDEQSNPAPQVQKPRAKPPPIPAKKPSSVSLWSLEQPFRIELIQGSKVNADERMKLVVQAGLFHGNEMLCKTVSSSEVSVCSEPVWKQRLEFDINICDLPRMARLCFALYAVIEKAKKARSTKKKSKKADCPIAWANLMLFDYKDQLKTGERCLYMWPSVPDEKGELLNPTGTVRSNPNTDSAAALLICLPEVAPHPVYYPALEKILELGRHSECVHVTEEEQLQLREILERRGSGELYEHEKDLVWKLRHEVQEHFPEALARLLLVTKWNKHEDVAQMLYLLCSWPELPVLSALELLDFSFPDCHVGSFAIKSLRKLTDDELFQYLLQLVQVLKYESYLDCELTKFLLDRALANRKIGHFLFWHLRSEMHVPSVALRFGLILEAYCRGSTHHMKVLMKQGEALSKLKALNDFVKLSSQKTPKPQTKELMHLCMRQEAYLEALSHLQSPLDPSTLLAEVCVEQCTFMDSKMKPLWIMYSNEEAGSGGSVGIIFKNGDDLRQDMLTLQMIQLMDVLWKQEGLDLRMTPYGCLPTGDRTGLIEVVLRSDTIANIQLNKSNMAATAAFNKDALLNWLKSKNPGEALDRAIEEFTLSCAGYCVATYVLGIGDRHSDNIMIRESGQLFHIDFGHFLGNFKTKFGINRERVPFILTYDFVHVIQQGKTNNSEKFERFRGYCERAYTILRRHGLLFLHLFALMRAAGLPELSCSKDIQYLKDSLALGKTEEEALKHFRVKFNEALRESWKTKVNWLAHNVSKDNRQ
Sequence of PIK3Cα_h (P42336 whole entry): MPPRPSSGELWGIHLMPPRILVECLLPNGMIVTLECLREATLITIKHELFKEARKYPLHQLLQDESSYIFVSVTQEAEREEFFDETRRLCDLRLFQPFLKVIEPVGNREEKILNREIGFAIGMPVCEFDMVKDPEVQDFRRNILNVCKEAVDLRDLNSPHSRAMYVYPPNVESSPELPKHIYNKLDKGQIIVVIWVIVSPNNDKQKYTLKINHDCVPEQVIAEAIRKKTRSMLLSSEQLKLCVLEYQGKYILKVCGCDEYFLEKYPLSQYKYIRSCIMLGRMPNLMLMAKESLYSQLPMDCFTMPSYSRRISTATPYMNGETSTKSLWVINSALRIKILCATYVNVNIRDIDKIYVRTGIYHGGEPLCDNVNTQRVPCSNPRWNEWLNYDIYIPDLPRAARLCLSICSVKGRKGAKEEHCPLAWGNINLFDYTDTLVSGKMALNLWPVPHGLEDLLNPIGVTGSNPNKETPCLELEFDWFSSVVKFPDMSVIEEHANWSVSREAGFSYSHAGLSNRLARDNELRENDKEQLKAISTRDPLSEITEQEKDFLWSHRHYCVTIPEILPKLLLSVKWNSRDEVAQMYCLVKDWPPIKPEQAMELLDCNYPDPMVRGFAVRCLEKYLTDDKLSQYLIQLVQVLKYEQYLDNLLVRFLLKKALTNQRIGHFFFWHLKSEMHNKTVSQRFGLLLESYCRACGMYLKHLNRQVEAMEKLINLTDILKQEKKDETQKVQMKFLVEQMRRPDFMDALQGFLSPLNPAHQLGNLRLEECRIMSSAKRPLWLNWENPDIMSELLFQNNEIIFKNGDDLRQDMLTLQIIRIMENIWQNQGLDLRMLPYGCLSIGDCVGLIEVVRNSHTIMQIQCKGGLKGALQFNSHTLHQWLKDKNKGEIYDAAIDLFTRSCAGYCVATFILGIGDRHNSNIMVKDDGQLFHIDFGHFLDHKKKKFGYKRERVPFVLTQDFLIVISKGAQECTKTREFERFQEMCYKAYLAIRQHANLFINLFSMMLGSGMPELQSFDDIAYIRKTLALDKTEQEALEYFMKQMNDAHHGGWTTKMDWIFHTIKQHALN
Sequence of PIK3Cβ_h (P42338 whole entry): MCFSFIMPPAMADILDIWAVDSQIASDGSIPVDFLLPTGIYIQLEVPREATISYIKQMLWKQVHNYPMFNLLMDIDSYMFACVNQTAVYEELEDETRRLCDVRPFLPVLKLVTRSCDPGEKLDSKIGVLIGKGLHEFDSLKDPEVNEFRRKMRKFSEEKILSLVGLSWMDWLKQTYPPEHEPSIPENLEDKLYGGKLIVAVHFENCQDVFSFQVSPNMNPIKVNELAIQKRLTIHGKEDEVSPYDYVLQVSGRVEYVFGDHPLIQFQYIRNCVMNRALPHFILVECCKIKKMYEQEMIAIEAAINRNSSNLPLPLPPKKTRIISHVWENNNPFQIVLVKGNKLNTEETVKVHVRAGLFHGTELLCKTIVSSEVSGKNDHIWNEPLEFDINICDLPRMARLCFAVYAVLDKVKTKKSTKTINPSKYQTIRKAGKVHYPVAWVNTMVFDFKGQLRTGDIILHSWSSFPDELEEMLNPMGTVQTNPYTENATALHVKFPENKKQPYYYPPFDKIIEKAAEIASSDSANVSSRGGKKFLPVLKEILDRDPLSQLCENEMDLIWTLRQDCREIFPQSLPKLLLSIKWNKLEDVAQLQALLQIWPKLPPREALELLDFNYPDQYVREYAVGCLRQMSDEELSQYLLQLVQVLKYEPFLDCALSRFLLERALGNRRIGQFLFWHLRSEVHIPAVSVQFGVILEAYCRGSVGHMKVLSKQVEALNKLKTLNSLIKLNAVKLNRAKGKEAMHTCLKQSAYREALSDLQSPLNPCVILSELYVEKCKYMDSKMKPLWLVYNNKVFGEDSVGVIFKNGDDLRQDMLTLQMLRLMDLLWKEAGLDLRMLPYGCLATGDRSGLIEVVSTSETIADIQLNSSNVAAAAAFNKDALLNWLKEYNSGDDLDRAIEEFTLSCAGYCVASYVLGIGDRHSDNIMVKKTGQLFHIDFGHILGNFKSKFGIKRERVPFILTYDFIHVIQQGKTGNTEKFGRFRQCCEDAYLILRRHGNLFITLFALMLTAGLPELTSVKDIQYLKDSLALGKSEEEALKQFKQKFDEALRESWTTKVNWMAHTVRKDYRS

SMILES	pKd (MTOR_h)	pKd (PIK3Cδ_h)	pKd (PIK3Cα_h)	pIC50 [1]	pKd (PIK3Cγ_h)	pIC50 [2]	pKd (PIK3Cβ_h)
Cc1c(F)cccc1Cc1c(CO)nc2c(N)cc(N3CCOCC3)nn12 [Compound 93]	5.72	6.78	< 4.52	6.92	5.41	6.76	8.57
Cc1nc2c(N)cc(N3CCOCC3)nn2c1Cc1cccc(F)c1CO [Compound 94]	5.24	5.85	4.78	6.38	4.98	< 6.29	7.74
Cc1c(F)cccc1Cc1c(CNCCO)nc2c(N)cc(N3CCOCC3)nn12 [Compound 97]	6.04	6.70	4.95	7.40	5.43	7.10	8.80
CCc1c(F)cccc1Cc1c(CO)nc2c(N)cc(N3CCOCC3)nn12 [Compound 99]	5.79	6.08	4.98	6.70	5.48	6.59	8.08
CC(CO)NCc1c(F)cccc1Cc1c(CO)nc2c(N)cc(N3CCOCC3)nn12 (stereo not drawn) [Compound 102]	< 4.52	5.82	< 4.52	< 6.29	< 4.52	< 6.29	6.85
Cc1nc2c(N)cc(N3CCOCC3)nn2c1Cc1cccc(F)c1CNC(C)CO (stereo not drawn) [Compound 103]	4.61	6.00	< 4.52	< 6.42	4.50	< 6.37	7.13
Nc1cc(N2CCOCC2)nn2c(Cc3cccc(C(F)(F)F)c3C3CCNCC3)c(CO)nc12 [Compound 104]	< 4.52	6.86	5.03	7.54	4.82	7.11	9.15
Cc1nc2c(N)cc(N3CCOCC3)nn2c1Cc1cccc(F)c1C1CCNCC1 [Compound 106]	< 4.52	6.43	5.56	6.89	5.30	6.76	9.30
Cc1nc2c(N)cc(N3CCOCC3)nn2c1Cc1cccc(F)c1C1CCN(CCO)CC1 [Compound 107]	4.94	6.45	4.93	6.94	5.06	6.80	7.92
Nc1cc(N2CCOCC2)nn2c(Cc3cccc(F)c3C3CCN(CCO)CC3)c(CO)nc12 [Compound 108]	4.73	6.42	4.67	< 6.29	4.86	< 6.29	7.85
Cc1nc2c(N)cc(N3CCOCC3)nn2c1Cc1cccc2c1CNCC2 [Compound 109]	4.65	7.01	4.89	7.09	5.54	6.87	8.05
Cc1nc2c(N)cc(N3CCOCC3)nn2c1Cc1cccc2c1CN(C(C)C)CC2 [Compound 110]	< 4.52	5.62	< 4.52	6.65	< 4.52	6.49	6.29
